The Deep4Chem optical property database
Values belong to the compound of their own block, whether it stands above or below them.

Experiment: photoluminescence quantum yield (fraction); solvent given as SMILES

Structure (SMILES): CC1(C)C2=[N+](CCCCCC(=O)NCCNC(=O)CCCCCN3/C(=C/C=C/C=C/C=C/2)C(C)(C)c2cc(S(=O)(=O)[O-])ccc23)c2ccc(S(=O)(=O)[O-])cc21
photoluminescence quantum yield (in CO): 0.57
photoluminescence quantum yield (in O): 0.33

Structure (SMILES): CC(C)(C)c1ccc(C(C)(C)C)c(N2C(=O)c3cccc4c(-c5ccc(-c6ccccc6)s5)ccc(c34)C2=O)c1
photoluminescence quantum yield (in CO): 0.34
photoluminescence quantum yield (in CS(C)=O): 0.43
photoluminescence quantum yield (in Cc1ccccc1): 0.06

Structure (SMILES): C(/C=C/c1cc2c3c(c1)CCCN3CCC2)=C\c1ccncc1
photoluminescence quantum yield (in C1COCCO1): 0.031
photoluminescence quantum yield (in CC#N): 0.034
photoluminescence quantum yield (in CCCCCCC): 0.033
photoluminescence quantum yield (in CO): 0.016

Structure (SMILES): CC1(C)c2ccccc2N(c2ccccc2)c2ccc(S(=O)(=O)c3ccc4c(c3)C(C)(C)c3ccccc3N4c3ccccc3)cc21
photoluminescence quantum yield (in O=P(c1ccccc1)(c1ccccc1)c1ccccc1Oc1ccccc1P(=O)(c1ccccc1)c1ccccc1): 0.5

Structure (SMILES): COc1ccc(/C=C/c2ccncn2)cc1
photoluminescence quantum yield (in ClCCl): 0.01

Structure (SMILES): CCOC(=O)c1ccc2c(c1)[se]c1c3ccc(C(=O)OCC)cc3[se]c21
photoluminescence quantum yield (in CCCO): 0.002

Structure (SMILES): Nc1nc(/C=C/c2ccc(N(c3ccccc3)c3ccccc3)cc2)cc(/C=C/c2ccc(N(c3ccccc3)c3ccccc3)cc2)n1
photoluminescence quantum yield (in Cc1ccccc1): 0.88
photoluminescence quantum yield (in ClC(Cl)Cl): 0.73

Structure (SMILES): N#Cc1nn(-c2cccc(C(F)(F)F)c2)nc1N1CCCC1
photoluminescence quantum yield (in CC#N): 0.801

Structure (SMILES): CCCCC(CC)CN1C(=O)c2cc(Oc3ccc(C(C)(C)C)cc3)c3c4c(Cl)cc5c6c(cc(Cl)c(c7c(Oc8ccc(C(C)(C)C)cc8)cc(c2c37)C1=O)c64)C(=O)N(c1c(C(C)C)cccc1C(C)C)C5=O (stereo unspecified)
photoluminescence quantum yield (in Cc1ccccc1): 0.72

Structure (SMILES): CCCCCCCCC1(CCCCCCCC)c2cc3c(cc2-c2sc(-c4ccc(/C=C5\SC(SCC)=NC5=O)c5nsnc45)cc21)C(CCCCCCCC)(CCCCCCCC)c1cc(-c2ccc(/C=C4\SC(SCC)=NC4=O)c4nsnc24)sc1-3
photoluminescence quantum yield (in C1CCOC1): 0.053
photoluminescence quantum yield (in ClC(Cl)Cl): 0.059

Structure (SMILES): CC(C)[Si](C#Cc1ccc(C#C[Si](C(C)C)(C(C)C)C(C)C)c2nc3c(ccc4ccccc43)nc12)(C(C)C)C(C)C
photoluminescence quantum yield (in CCCCCC): 0.05

Structure (SMILES): N#Cc1nn(-c2ccccc2Cl)nc1N1CCCC1
photoluminescence quantum yield (in CC#N): 0.607

Structure (SMILES): O=CN1N=C(c2ccc(Br)cc2)C[C@@H]1c1ccccc1
photoluminescence quantum yield (in C1CCCCC1): 0.25
photoluminescence quantum yield (in C1COCCO1): 0.25
photoluminescence quantum yield (in CC#N): 0.14
photoluminescence quantum yield (in CCO): 0.13
photoluminescence quantum yield (in CCOC(C)=O): 0.18
photoluminescence quantum yield (in CO): 0.05
photoluminescence quantum yield (in CS(C)=O): 0.11
photoluminescence quantum yield (in Cc1ccccc1): 0.01
photoluminescence quantum yield (in ClC(Cl)(Cl)Cl): 0.02

Structure (SMILES): CN(C)c1ccc(C2=Cc3c4ccccc4c4ccccc4[n+]3[B-](F)(F)O2)cc1
photoluminescence quantum yield (in C1CCOC1): 0.585
photoluminescence quantum yield (in C1COCCO1): 0.855
photoluminescence quantum yield (in CC1CCCCC1): 1
photoluminescence quantum yield (in CC#N): 0.447
photoluminescence quantum yield (in CCOC(C)=O): 0.655
photoluminescence quantum yield (in CCOCC): 0.999
photoluminescence quantum yield (in CN(C)C=O): 0.323
photoluminescence quantum yield (in CO): 0.471
photoluminescence quantum yield (in COC(C)=O): 0.441
photoluminescence quantum yield (in ClC(Cl)Cl): 0.811

Structure (SMILES): COc1cccc(OC)c1-c1c2ccc(=[N+]3CCCCC3)cc-2oc2cc(N3CCCCC3)ccc12
photoluminescence quantum yield (in ClCCl): 0.86

Structure (SMILES): COC(=O)C([NH3+])Cc1ccc2oc(-c3ccncc3)nc2c1 (stereo unspecified)
photoluminescence quantum yield (in CC1CCCCC1): 0.01
photoluminescence quantum yield (in CC#N): 0.05
photoluminescence quantum yield (in CO): 0.18
photoluminescence quantum yield (in O): 0.22

Structure (SMILES): c1ccc(-c2c3c(c(-c4ccccc4)c4cc5ccccc5cc24)Cc2c(c(-c4ccccc4)c4cc5ccccc5cc4c2-c2ccccc2)C3)cc1
photoluminescence quantum yield (in CC#N): 0.27
photoluminescence quantum yield (in CCCCCC): 0.28
photoluminescence quantum yield (in CO): 0.3
photoluminescence quantum yield (in Cc1ccccc1): 0.61
photoluminescence quantum yield (in ClCCl): 0.21

Structure (SMILES): Cc1cccc2ccccc12
photoluminescence quantum yield (in C1CCCCC1): 0.4

Structure (SMILES): COc1cccc2cc(-c3ccc([N+](=O)[O-])cc3)c(=N)oc12
photoluminescence quantum yield (in C1CCOC1): 0.004
photoluminescence quantum yield (in CC#N): 0.0016
photoluminescence quantum yield (in CS(C)=O): 0.0021
photoluminescence quantum yield (in ClC(Cl)Cl): 0.023

Structure (SMILES): CC1(C)[C@@H]2CC[C@]1(C)c1nc3cc(-c4cccs4)ccc3nc12
photoluminescence quantum yield (in CC#N): 0.06
photoluminescence quantum yield (in CCCCO): 0.35
photoluminescence quantum yield (in CCO): 0.37
photoluminescence quantum yield (in CCOC(C)=O): 0.02
photoluminescence quantum yield (in CO): 0.52
photoluminescence quantum yield (in Cc1ccccc1): 0.01
photoluminescence quantum yield (in ClC(Cl)Cl): 0.11
photoluminescence quantum yield (in ClCCl): 0.05

Structure (SMILES): CSc1sc(C(C)=O)c2nn[nH]c(=O)c12
photoluminescence quantum yield (in C1CCOC1): 0.015
photoluminescence quantum yield (in CC#N): 0.017
photoluminescence quantum yield (in CCO): 0.0091
photoluminescence quantum yield (in CN(C)C=O): 0.0047
photoluminescence quantum yield (in CO): 0.0077
photoluminescence quantum yield (in CS(C)=O): 0.0048

Structure (SMILES): COc1ccc(C2=C(c3ccc(OC)cc3)C(C)(C)c3sccc32)cc1
photoluminescence quantum yield (in C1CCCCC1): 0.02

Structure (SMILES): c1ccc2c(c1)c1ccccc1n2-c1ccc(-c2ccc(-c3ccc(-n4c5ccccc5c5ccccc54)nc3-n3c4ccccc4c4ccccc43)nn2)c(-n2c3ccccc3c3ccccc32)n1
photoluminescence quantum yield (in Cc1ccccc1): 0.36

More lines, now with the values ahead:

photoluminescence quantum yield (in ClCCl): 0.12
Structure (SMILES): CC(C)[Si](C#Cc1c2cc3ccccc3cc2c(C#Cc2ccc(Br)cc2)c2cc3ccccc3cc12)(C(C)C)C(C)C

photoluminescence quantum yield (in CCCCCC): 0.47
photoluminescence quantum yield (in CO): 0.6
photoluminescence quantum yield (in ClCCl): 0.36
Structure (SMILES): CCCCc1ccc2ccc3c(CCCC)ccc4ccc1c2c43

photoluminescence quantum yield (in ClCCl): 0.89
Structure (SMILES): O=S1(=O)c2ccc(-c3ccc(N(c4ccccc4)c4ccccc4)cc3)cc2C2(c3ccccc3-c3ccccc32)c2cc(-c3ccc(N(c4ccccc4)c4ccccc4)cc3)ccc21

photoluminescence quantum yield (in ClCCl): 0.83
photoluminescence quantum yield (in c1cc(-n2c3ccccc3c3ccccc32)cc(-n2c3ccccc3c3ccccc32)c1): 0.9
Structure (SMILES): O=S1(=O)c2ccccc2C2(c3cc(-c4ccc(N(c5ccccc5)c5ccccc5)cc4)ccc3-c3ccc(-c4ccc(N(c5ccccc5)c5ccccc5)cc4)cc32)c2ccccc21

photoluminescence quantum yield (in C1CCOC1): 0.53
Structure (SMILES): CCCCCOc1cc2oc(=O)c3c4ccc(N(c5ccc(C)cc5)c5ccc(C)cc5)cc4c4ccc5cccc6c(c1)c2c3c4c56

photoluminescence quantum yield (in C1CCCCC1): 0.35
photoluminescence quantum yield (in CC#N): 0.39
photoluminescence quantum yield (in CO): 0.26
photoluminescence quantum yield (in ClCCl): 0.36
Structure (SMILES): COc1c2ccccc2c(OC)c2c1c1ccc(C(F)(F)F)cc1n2C

photoluminescence quantum yield (in ClC(Cl)Cl): 0.64
Structure (SMILES): Cc1ccc(S(=O)(=O)/N=c2\oc3cccc4c5c(-c6ccccc6)oc6cccc(c(c2-c2ccccc2)c34)c65)cc1

photoluminescence quantum yield (in ClC(Cl)Cl): 0.16
Structure (SMILES): CCCCC1(c2ccccc2)Nc2c(-c3ccc(N(C)C)cc3)ccc(-c3ccc(N(C)C)cc3)c2N=C1c1ccccc1 (stereo unspecified)

photoluminescence quantum yield (in CO): 0.16
Structure (SMILES): c1ccc(N(c2ccccc2)c2ccc(-c3ncc(-c4ccc(-c5ccc(-c6cnc(-c7ccc(N(c8ccccc8)c8ccccc8)cc7)s6)s5)s4)s3)cc2)cc1

photoluminescence quantum yield (in CCCCCC): 0.7
photoluminescence quantum yield (in CO): 0.78
photoluminescence quantum yield (in CS(C)=O): 0.6
photoluminescence quantum yield (in ClC(Cl)Cl): 0.92
photoluminescence quantum yield (in ClCCl): 0.94
photoluminescence quantum yield (in O): 0.05
Structure (SMILES): O=S(=O)(/N=c1\oc2cccc3c4c(-c5ccccc5)oc5cccc(c(c1-c1ccccc1)c23)c54)C(F)(F)F

photoluminescence quantum yield (in ClCCl): 0.47
Structure (SMILES): Fc1ccc(C#Cc2nc(C#Cc3ccc(F)cc3)c(C#Cc3ccc(F)cc3)c(C#Cc3ccc(F)cc3)c2C#Cc2ccc(F)cc2)cc1

photoluminescence quantum yield (in ClCCl): 0.55
Structure (SMILES): F[B-]1(F)OC(c2ccccc2)=Cc2cc3[n+](c[n+]21)[B-](F)(F)OC(c1ccccc1)=C3

photoluminescence quantum yield (in ClC(Cl)Cl): 0.17
Structure (SMILES): Cc1ccc(C(=O)/N=c2\oc3cccc4c5c(-c6ccccc6)oc6cccc(c(c2-c2ccccc2)c34)c65)cc1

photoluminescence quantum yield (in ClCCl): 0.5
Structure (SMILES): C[SiH]1c2ccccc2-c2cc3c(cc21)-c1ccccc1[SiH]3C (stereo unspecified)

photoluminescence quantum yield (in CS(C)=O): 0.05
Structure (SMILES): Cn1c(=O)c(/N=N/c2ccc(/N=N/c3ccc(S(=O)(=O)O)cc3)cc2)c(O)c2ccccc21
